IC50 data for four compounds are collected here from US11707462B2, “Checkpoint kinase 1 (CHK1) inhibitors and uses thereof” (Boundless Bio, Inc., priority 2021, dated 2023).

In experiment [1] the target is T1, Full-length human Chk1 protein (Homo sapiens, UniProt O14757).
T1 construct: purchased Carna Biosciences, Inc. 02-117
T1 sequence (O14757 1-476): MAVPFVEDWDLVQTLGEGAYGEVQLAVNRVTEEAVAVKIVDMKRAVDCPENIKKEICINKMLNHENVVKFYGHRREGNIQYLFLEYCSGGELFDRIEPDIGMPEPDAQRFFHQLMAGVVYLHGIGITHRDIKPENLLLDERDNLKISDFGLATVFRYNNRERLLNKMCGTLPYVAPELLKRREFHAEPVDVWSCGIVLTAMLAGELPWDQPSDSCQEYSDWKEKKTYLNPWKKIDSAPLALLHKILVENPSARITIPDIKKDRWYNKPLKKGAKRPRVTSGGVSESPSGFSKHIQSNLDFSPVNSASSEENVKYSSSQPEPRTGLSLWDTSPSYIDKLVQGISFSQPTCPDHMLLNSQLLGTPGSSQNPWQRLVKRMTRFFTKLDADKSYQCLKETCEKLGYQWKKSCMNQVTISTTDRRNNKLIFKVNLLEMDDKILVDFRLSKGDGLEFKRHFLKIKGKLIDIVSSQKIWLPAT
Description: Kinase HTRF biochemical assay (HTRF KinEASE), Chk1 enzyme activity. The following applies: full-length human Chk1, ATP 1 mM, 60 minutes at room temperature. The procedure, abridged: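 Full-length human Chk1 (0.012 ng/μL) in buffer with 5 mM MgCl2 and 1 mM DTT, preincubated with compound 10 min at room temperature; reaction with 120 nM biotinylated STK substrate 1 and 1 mM ATP for 60 min at room temperature. HTRF detection via cryptate antibody/streptavidin-XL665; IC50 from 10-point duplicate curves.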

The test system of a further experiment is p-CHK1 (Ser345). Briefly: AlphaLISA SureFire Ultra p-CHK1 (Ser345) cellular assay in HT29 cells. It counts as cell-based. The note with it: Homo sapiens, HT-29, 16 h at 37° C. The essentials:
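HT29 cells treated with compounds over a 10-point, 3-fold dilution series for 16 h at 37° C., then lysed; p-CHK1 (Ser345) in lysates measured by AlphaLISA SureFire Ultra (acceptor and donor steps 1 h each at room temperature). IC50 from dose-response curve fits.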
On the technique in general: In Alpha technology, singlet oxygen from a donor bead excites a nearby acceptor bead.

`Cc1cc(F)c(-c2cc(Nc3cnc(C#N)cn3)n[nH]2)c(O[C@@H]2CC[C@@H](N)C2)c1` [Example 5-1, 5-((5-(2-(((1R,3R)-3-aminocyclopentyl)oxy)-6-fluoro-4-methylphenyl)-1H-pyrazol-3-yl)amino)pyrazine-2-carbonitrile]: the results for the IC50 (in experiment [1]; in the experiment with p-CHK1 (Ser345)) were at most 0.01 µM and at most 0.05 µM, respectively.
Turning to `Cc1cc(F)c(-c2cc(Nc3cnc(C#N)cn3)n[nH]2)c(O[C@@H]2CC[C@H](N)C2)c1` [Example 5-2, 5-((5-(2-(((1R,3S)-3-aminocyclopentyl)oxy)-6-fluoro-4-methylphenyl)-1H-pyrazol-3-yl)amino)pyrazine-2-carbonitrile], the IC50 (as a rule, the midpoint of a concentration-inhibition curve) in experiment [1] lay within 0.01 to 0.1 µM; with p-CHK1 (Ser345) it was 0.1 to 0.5 µM.
In the case of `CN[C@@H]1CC[C@@H](Oc2cc(C)cc(F)c2-c2cc(Nc3cnc(C#N)cn3)n[nH]2)C1` [Example 5-3, 5-((5-(2-fluoro-4-methyl-6-(((1R,3R)-3-(methylamino)cyclopentyl)oxy)phenyl)-1H-pyrazol-3-yl)amino)pyrazine-2-carbonitrile], the IC50 in experiment [1] was at most 0.01 µM; in the experiment on p-CHK1 (Ser345) it was at most 0.05 µM.
For `CN(C)[C@@H]1CC[C@@H](Oc2cccc(F)c2-c2cc(Nc3cnc(C#N)cn3)n[nH]2)C1` [Example 5-4, 5-((5-(2-(((1R,3R)-3-(dimethylamino)cyclopentyl)oxy)-6-fluorophenyl)-1H-pyrazol-3-yl)amino)pyrazine-2-carbonitrile], the IC50 was 0.1 to 0.5 µM in experiment [1] and over 1 µM with p-CHK1 (Ser345).
